Data as given in article PMC7171691 (Journal of Tropical Medicine, 2020).
Values after ≈ are worked out from the molar mass of the structure shown.

Assays:
P. berghei ANKA = assay: In vivo efficacy, 4-day oral treatment of infected mice; parameters: species or system Plasmodium berghei in female Swiss albino mice; conditions: for Number of mice which survived up to 11 days: 5 mice per group
Method: Female Swiss albino mice were collected and kept in the animal house of the Center for Biotechnology and Research Development at the Kenya Medical Research Institute (KEMRI), where the animal experiments were carried out. The animals were six weeks old, weighing 20 to 22 g, and they were kept in mice cages and were allowed to access mice pencils (Ungafeed Company Ltd) and water before experimental testing. Plasmodium berghei ANKA strains, sensitive to quinolone and artemisinin-based drugs, were obtained from the Unit of Malaria, Center for Biotechnology and Research and Development, Kenya Medical Research Institute. Parasites were maintained and cryopreserved in a freezer (−80°C). The parasite was subsequently maintained in the laboratory by serial blood passage from mouse to mouse on a weekly basis.
This consisted of in vivo evaluation of hybrid drug against P. berghei ANKA, a rodent parasite which is commonly used in antimalarial studies. Female Swiss albino donor mouse was injected intraperitoneally with 0.2 ml of inoculums of 1 × 10^7 parasitized erythrocytes, and P. berghei ANKA strain was obtained from the donor mouse. Parasitaemia was assessed after 5 days under microscope using the Giemsa staining technique. The donor mouse was sedated using carbon dioxide to collect blood via cardiac puncture in a heparinized tube using a syringe and a needle. Carcasses were pooled in a biohazard container and stored at room temperature while waiting to be incinerated. Afterward, the experimental mice were infected with inoculums of 1 × 10^7 parasitized erythrocytes using an intraperitoneal method. The mice were grouped into five groups consisting of 5 mice per group. […] Blood for making thin blood smear was collected from the tip of the mouse tail. The efficacy of the drug was measured by comparison of blood parasitaemia after the four days of therapy (i.e., on day 5 postinfection). The ones still alive at the end of the experiments were killed by using carbon dioxide gas followed by incineration.
The determination of the dose to be administered was calculated individually according to each mouse weight. In this regard, these formulas were applied: HED (mg/kg) = Animal Dose (mg/kg) ∗ [Animal km/Human km], where HED stands for human equivalent dose and km which is a conversion factor. With km (a constant) = Weight/Body surface area. For mice of 0.02 kg, with a body surface area of 0.007, km = 0.02/0.007 = 3 [15].(3) Dosage mg/kg =Drug concentration mg/ml∗Volume ml/Body weightkg.
From formula (2),(4) Volume ml of drug to be given to each mouse=Body weight kg∗Dosage mg/kg/Drug concentration mg/ml .
The parasitaemia was checked for every 24 hours from the time of infection for 4 days. Thin blood smears were prepared from each mouse tail venous blood. The smears were prepared by the Giemsa staining technique, and the parasitaemia of individual mouse had been checked using a light microscope. The following formula was used to calculate the percentage parasitaemia:(5) The Percentage of parasitaemia=Number of parasitized RBCs/field/Total number of RBCs/field ∗100.
After 4 days, the percentage (%) chemosuppression of each drug was determined using the following formula [17]:(6) Percentage chemosuppression= 100−A−B/A×100, where A is the mean parasitaemia in the negative control group and B is the parasitaemia in the test group. The dose that cured 50% of infected animals had been determined as effective dose (ED50) using a nonlinear regression logistic dose-response model.

[1] = Acute oral toxicity in mice; type: in vivo; conditions: for Number of dead mice: 3 mice per group, head says after 28 days, text 14 days, listed as sarcosine-aniline hybrid drug; for Mean average of weight after 14 days: initial weights 20 to 22 g
Method: In this step, acute toxicity was performed. Three dosages, such as 2000 mg·kg^−1, and 300 mg·kg^−1, and 50 mg/kg were administered orally to mice in three groups, and the fourth group which served as a control received water as a placebo. Each group consisted of 3 mice, and the weight and number of dead mice were monitored and recorded after each 4 days over an interval of 14 days. Clinical or physical signs were also subjected to be recorded during the study period. At the end of the experiment, the mice were killed by using concentrated carbon dioxide gas followed by incineration. The number of dead mice was to be recorded, and a semilog plot of log concentration against percentage (%) response was made.

[2] = tested on: P. falciparum 3D7 strains (CQ sensitive); assay: In vitro drug sensitivity, tritiated hypoxanthine incorporation assay; type: cell-based, Plasmodium falciparum; conditions: Plasmodium falciparum; P. falciparum 3D7, CQ sensitive; [3H]hypoxanthine uptake, 48 hours; read-out: IC50
Method: Further dilutions were prepared on the day of biological assays. All the drug solutions were stored at 4°C for later use.

MTT cytotoxicity assay = type: cell-based, African green monkey (Cercopithecus aethiops); conditions: African green monkey (Cercopithecus aethiops), Vero E-6 cells; vero cells, MTT, 48 hours, triplicate; read-out: Mean CC50
Method: (§1) To conduct in vitro toxicity, stock solutions of the test compound and reference drugs were prepared with sterile water. […] The test samples were prepared as a 1 mg·ml^−1 stock solution. Further dilutions were prepared on the day of biological assays. All the drug solutions were stored at 4°C for later use. Vero cells (Vero E-6) were obtained from the Center for Traditional Medicine Drugs and Research (CTMDR), KEMRI. Vero cells are kidney cells extracted from an African green monkey (Cercopithecus aethiops). […] Cells were maintained in Minimum Essential Eagle's Medium (MEM) containing 10% fetal bovine serum (FBS), PenStrep, and glutamine. Vero cells were cultured using T-75 culture flasks. The flasks were kept at 37°C in 5% CO2, and the cells were passaged every 2 to 3 days to keep the cells alive. Trypsinization was carried out to detached cells which overlap each other and counted using a hemocytometer (Neubauer).
(§2) Using a 96-microwell plate, a cell density of 20,000 vero cells were seeded and incubated for 24 hours at 37°C under 5% CO2 to allow cells to attach to the surface/base of the plate. […] The plates were incubated for 48 hours at 37°C under 5% CO2 to allow the reaction to occur. After 48 hours, 0.5 mg/ml of 3-(4, 5-dimethylthiazol-2-yl)-2,5-diphenyltetra-zolium bromide (MTT) was added for calorimetric measurement of the ability of a drug to kill the vero cell lines. The plates were incubated at 37°C for 3 hours. 100 μL of 100% DMSO was added to each well and mixed to ensure cell lysis and dissolving of the formazan crystals. Doxorubicin was used as a control drug.
(§3) The amount of formazan measured was directly proportional to the number of viable cells.

vero cells (Vero E-6) = assay: MTT cytotoxicity assay; type: cell-based, African green monkey (Cercopithecus aethiops); conditions: vero cells
Method: as §1, §2, §3

[3] = Acute oral toxicity in mice; conditions: mouse, in vivo, 28 days
Solubility observations = type: physicochemical

SMILES: CNCC(=O)Nc1ccc(Oc2ccc(Cl)cc2)c(Cl)c1 [Sarcosine-aniline hybrid, 3-Chloro-4(4-chlorophenoxy) Methyglycylanilde]
- ED50 (P. berghei ANKA; Plasmodium berghei, 96 h, P. berghei ANKA sensitive strain in mice, four days of oral treatment, read-out: ED50): 6.49 mg/kg
- Average parasitaemia, Day 7 (P. berghei ANKA; after stopping the treatment with 10 mg/kg, day 7): 9.74%
- Average parasitaemia, Day 9 (P. berghei ANKA; after stopping the treatment with 10 mg/kg, day 9): 12.98%
- Average parasitaemia, Day 11 (P. berghei ANKA; after stopping the treatment with 10 mg/kg, day 11): 15.61%
- Number of mice which survived up to 11 days (P. berghei ANKA; dosage 0.625 mg/kg oral): 1
- Number of mice which survived up to 11 days (P. berghei ANKA; dosage 1.25 mg/kg oral): 1
- Number of mice which survived up to 11 days (P. berghei ANKA; dosage 2.5 mg/kg oral): 1
- Number of mice which survived up to 11 days (P. berghei ANKA; dosage 5 mg/kg oral): 2
- Number of mice which survived up to 11 days (P. berghei ANKA; dosage 10 mg/kg oral): 3
- Number of dead mice ([1]; 50 mg/kg oral): No mouse died
- Mean average of weight after 14 days ([1]; 50 mg/kg oral): 22.24 g
- Number of dead mice ([1]; 300 mg/kg oral): No mouse died
- Mean average of weight after 14 days ([1]; 300 mg/kg oral): 21.58 g
- Number of dead mice ([1]; 2000 mg/kg oral): No mouse died
- Mean average of weight after 14 days ([1]; 2000 mg/kg oral): 21.34 g
- Therapeutic index (LD50/ED50) ([1]; LD50 >5000 mg/kg, ED50 6.49 mg/kg): greater than 770.41
- LD50 at 14 days ([1]; mouse, in vivo, oral, mice, estimated from no deaths at 2000 mg/kg): > 5000 mg/kg
- OECD/OCDE guideline toxicity category ([1]; oral acute toxicity, mice): category 5
- Therapeutic index relative to that of artesunate ([1]; versus artesunate therapeutic index of 4 from Xie et al. [31]): 192.6 fold
- IC50 [2]: 0.0448 ± 0.0047 µg/mL (≈ 0.138 µM)
- CC50 at 48 h (MTT cytotoxicity assay): 50.2 µg/mL (≈ 154 µM)
- Mean difference of CC50 versus artesunate (vero cells (Vero E-6); sarcosine-aniline hybrid VS artesunate, in µg/mL): 30.48
- Mean difference of CC50 versus chloroquine (vero cells (Vero E-6); sarcosine-aniline hybrid VS chloroquine): -7.78
- Mean difference of CC50 versus doxorubicin (vero cells (Vero E-6); sarcosine-aniline hybrid VS doxorubicin, in µg/mL): 48.21
- Number of dead mice [3]: 0
- Solubility in dimethyl sulfoxide (DMSO) (Solubility observations; DMSO): soluble
- Solubility in Tween 80 (Solubility observations; Tween 80): slightly soluble
- Solubility in water (Solubility observations; water): very low
